The source of these data is patent US9387221B2, “SDF-1 binding nucleic acids and the use thereof in cancer treatment” (NOXXON Pharma AG, priority 2010, dated 2016).

{PEG40k} = 40 kDa polyethylene glycol

In data set [1] the target is SDF-1 (Homo sapiens, UniProt P48061). As to the kind of experiment: SDF-1 dependent chemotaxis of primary chronic lymphocytic leukemia cells. Format: cell-based.
Data set [2] concerns RPMI-8226 MM cells. As to the kind of experiment: Chemosensitization coculture of RPMI-8226 MM cells with stromal MS-5 cells. To be noted: 100 nM NOX-A12, 1 μM F-ara-A, 40 hours. Format: cell-based. The method, then:
In order to mimic the in vivo interaction of the BM microenvironment with leukemia cells, an in vitro coculture system with murine BM stromal MS-5 cells and the multiple myeloma (abbr. MM) cell line RPMI 8226 was established. Aim of the experiment was to show whether SDF-1 binding […] NOX-A12 sensitizes MM cells in coculture with stromal cells to effects of chemotherapeutic agents. Stromal MS-5 cells secreting SDF 1 were incubated with SDF-1 binding […] NOX-A12 or the non-functional revNOX-A12. The MM cell line RPMI-8226 was added to the confluent stromal cell layer. The cells were then incubated with the chemotherapeutic agent F ara A (Fludarabine) for 40 hours. Cell Viability viability was measured. The murine stromal cell line MS-5 (ACC 441) was purchased from the DSMZ, the Multiple Myeloma cell line RPMI8226 (CCL-155) was purchased from the ATCC. The Multiple Myeloma cell line RPMI8226 was maintained in RPMI medium 1640 GlutaMAX (Invitrogen) supplemented with 10% FBS (Biochrom) and penicillin-streptomycin, the MS-5 cells were cultured in MEM alpha GlutaMAX (Invitrogen) with 10% FBS and penicillin-streptomycin. […] Cell viability and cell number were determined by Flow Cytometry using the Guava EasyCyte 6HT/2L (Millipore).

The subject of data set [3] is stromal MS-5 cells. As to the kind of experiment: Viability of stromal MS-5 cells in the coculture. It counts as cell-based, murine. The method, then:
The murine stromal cell line MS-5 (ACC 441) was purchased from the DSMZ, the Multiple Myeloma cell line RPMI8226 (CCL-155) was purchased from the ATCC. The Multiple Myeloma cell line RPMI8226 was maintained in RPMI medium 1640 GlutaMAX (Invitrogen) supplemented with 10% FBS (Biochrom) and penicillin-streptomycin, the MS-5 cells were cultured in MEM alpha GlutaMAX (Invitrogen) with 10% FBS and penicillin-streptomycin. For chemosensitization coculture experiments stromal MS-5 cells were seeded the day before onto 24-well plates (the inner eight wells) at a concentration of 8×10^4/mL/well in MEM alpha GlutaMAX medium (+10% FBS) and incubated at 37° C. in 5% CO2. The confluent stromal cell layer was washed and 0.5 mL RPMI medium 1640 (+1% FBS) was added to the wells. SDF-1 binding […] NOX-A12 or revNOX-A12 was subsequently added to the wells to a final concentration of 100 nM and incubated for four hours. 3.5×10^5 RPMI8226 cells in RPMI medium 1640 (+1% FBS) were added to the stromal cell layer. Four hours later, 1 μ[…] (Sigma Aldrich) was added to the cells when indicated. After 40 hours of incubation the cells were collected in 15 mL tubes, first the supernatant was harvested and then the attached cells were trypsinized including MS-5 cells. […] Cell viability and cell number were determined by Flow Cytometry using the Guava EasyCyte 6HT/2L (Millipore).

The subject of data set [4] is Jurkat cells. The data set is described as follows: Proliferation of Jurkat cells in coculture with stromal MS-5 cells. Format: cell-based, human. To be noted: 40 hours. The method, then: Aim of the experiment was to show whether SDF-1 binding Spiegelmer NOX-A12 has an impact on proliferation of leukemia cells in coculture with bone marrow (abbr. BM) stromal cells. Murine stromal MS-5 cells secreting SDF-1 were incubated with SDF-1 binding Spiegelmer NOX-A12 or the non-functional Spiegelmer revNOX-A12. The leukemic T-cell line Jurkat was added to the confluent stromal cell layer and incubated for 40 hours at 37° C. and 5% CO2. Cell numbers were quantified by Flow Cytometry using the Guava EasyCyte and ViaCount Reagent.
The murine stromal cell line MS-5 (ACC 441) were purchased from the DSMZ and were cultured in MEM alpha GlutaMAX (Invitrogen) with 10% FBS and penicillin-streptomycin. For proliferation coculture experiments stromal MS-5 cells were seeded the day before onto 24-well plates (the inner eight wells) at a concentration of 8×10^4/mL/well in MEM alpha GlutaMAX medium (+10% FBS) and incubated at 37° C. in 5% CO2. The confluent stromal cell layer was washed and 0.5 mL RPMI medium 1640 (+1% FBS) was added to the wells. […] 2×10^5 Jurkat cells (logarithmic growth phase; washed once) in RPMI medium 1640 (+1% FBS) were added to the confluent stromal cell layer and incubated for […] at 37° C. with 5% CO2. […] Cell viability and cell number were determined by Flow Cytometry using the Guava EasyCyte 6HT/2L.

SDF-1, sequence (P48061 22-89 limits assumed): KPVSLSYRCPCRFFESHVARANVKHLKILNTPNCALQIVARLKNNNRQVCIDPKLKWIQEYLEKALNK

In the case of “5′-40 kDa-PEG-GCGUGGUGUGAUCUAGAUGUAUUGGCUGAUCCUAGUCAGGUACGC (5' {PEG40k}, sugars by position and backbone not given here) [NOX-A12]”, in data set [1], the “block of SDF-1 dependent chemotaxis” value is “effectively blocked”. Further, the “cell viability of RPMI-8226 cells cocultured with stromal MS-5 cells” value in data set [2] is listed as “only slightly affected”. The “viability of stromal MS-5 cells” value in data set [3] was “neither affected”. Moreover, in data set [4] (1 nM), the “effect on Jurkat cell number” value is reported as “no effect”. Also, the “reduction of Jurkat cell number” value in data set [4] (10 or 100 nM) is recorded as “up to 20%”.
